Experimental data taken from patent publication US5539123A, “Low molecular weight thiocarbamates as inhibitors of elastase, uses and method of synthesis” (University of Kentucky Research Foundation, priority 1994, dated 1996).

Experiments:
[1] = target: T1, Human Leucocyte Elastase (Homo sapiens, UniProt P08246); assay: Inactivation of Human Leucocyte Elastase (HLE-catalyzed hydrolysis of N-Methoxysuccinyl-L-Ala-L-Ala-L-Pro-L-Val-p-nitroanilide); type: biochemical; settings: for times more potent than PC1: compared with PC1, kobs/I=3.3×10^4 M^-1 s^-1; for kinact/KI: second order rate constant, pH 7.5, 25° C., read-out: kobs/I
T1 construct: Human leucocyte elastase from human sputum was purchased from elastin corporation; purchased elastin corporation; host or cells: human sputum
T1 sequence (P08246 30-247 limits assumed): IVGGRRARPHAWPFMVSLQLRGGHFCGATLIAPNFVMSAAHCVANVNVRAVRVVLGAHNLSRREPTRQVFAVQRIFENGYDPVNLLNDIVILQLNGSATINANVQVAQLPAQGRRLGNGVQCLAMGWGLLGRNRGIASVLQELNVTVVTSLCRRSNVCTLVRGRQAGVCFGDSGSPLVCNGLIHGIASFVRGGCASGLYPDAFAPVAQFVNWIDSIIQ
Method: Therefore, second order rate constants (kobs /I, M^-1 s^-1), (I=concentration inhibitor molar) shown in Formula 1, were determined by following the inactivation of the enzyme for 2 hours as described in the experimental section. […] The results are plotted as % of relative remaining activity vs time which is the absolute remaining activity in the presence of inhibitor divided by the absolute remaining activity of the free enzyme in absence of inhibitor for the same time interval.
In such a case a semilog plot of the relative remaining activity (A/Ao) vs time would describe a curve approaching the fractional activity (F) at longer times whereas a semilog plot of (A/Ao-F)/(1-F) vs time will be linear with a slope equal to the kobs, the pseudofirst order rate constant (equation 2).
The inactivation of HLE enzyme appears to involve the chemical modification of one residue on the enzyme and the pseudofirst order rate constant kobs divided by the concentration of the inhibitor (I) can be used as a measure of the inhibitory activity of the compounds (equation 3).
Human leucocyte elastase from human sputum was purchased from elastin corporation. Hepes, 4-(2-hydroxyethyl)-1-piperazineethanesulfonic acid, was purchased from Aldrich Chemical Co. (Milwaukee, Wis.). Substrate N-Methoxysuccinyl-L-Ala-L-Ala-L-Pro-L-Val-p-nitroanilide was purchased from Sigma Chemicals. Absorbance was measured with a VARIAN CARY-2200 spectrophotometer at 410 nm.
5 μl of acetate buffer (0.05M Sodium Acetate adjusted with 6N HCl to ph=5.5) is added to the reference cuvette, and the cuvette is shaken for 15 seconds to mix the solution. 5 μl of HLE 3.7×10^-5 M in acetate buffer is added to the sample cuvette and the cuvette is shaken for 15 seconds. Both cuvettes were placed in the jacketed cuvette holders of the spectrophotometer and incubated at 25° C. for a fixed time interval up to 2 hours (Incubation periods of 3, 4, 5, 7, 10, 15, 20, 30, 45, 60, 90 and 120 minutes were used).
Shortly before the incubation period ends, the cuvettes are balanced at 410 nm. […] The cuvettes are shaken for 15 seconds and the absorbance is recorded at 410 nm at 1 min, 2 min and 3 min after addition of substrate. A control in which 50 μl of dimethyl sulfoxide used to dissolve the inhibitor is added in its place, is done in the same manner as above for each incubation period.
Absorbance of sample is the absolute remaining activity of HLE (A), and absorbance of control is the total activity of HLE (Ao).
% Relative Remaining Activity=(A/Ao)×100
The % relative remaining activity of the HLE for each inhibitor is plotted against the time of incubation and from the slope of the semilog plot the kobs is determined.
The equation that describes this model is:
A/Ao=(1-F)e^-Kobst +F (equation 1)
Rearranging results in a linear relationship
Ln ((A/Ao)-F/1-F)=-kobs t (equation 2)
A semilog plot results in a straight line with slope=kobs, the pseudofirst order rate constant ksec =kobs /I (equation 3)
The ksec is the second order independent rate constant that is used to compare the inhibitory activity of the compounds against HLE.

[2] = Stability in excess of methanol with normal phase HLPC/HPLC; type: physicochemical
Method: The flow was maintained at 1 ml/min, and a KRATOS variable UVdetector at 265 nm was used. Two separate experiments were conducted under the above conditions in which the stability of (1E) was [drawing 16] monitored in excess of methanol.
The above two experiments indicate that (1E) is consumed at the same rate as the thiol tetrazole (D) is produced. The thiol tetrazole (D) is exclusively produced from the degradation of the thiocarbamate with methanol. In other words (1E) reacts with methanol to give thiol tetrazole (D) and most probably N-n-butyl, methylcarbamate which cannot be detected under the above conditions.

[3] = inactivation followed for 2 hours

SMILES | inhibition of HLE [1] | kinact/KI [1, 3] [M⁻¹ s⁻¹] | further results
CCCCN [Compound 1A, n-butylamine] | None of the corresponding amines (1A, 2A, 3A, 4A, 5A and 6A) nor 1-phenyl-1H-tetrazole-5-thiol (D) inhibited HLE | – | –
CCCCNC(=O)Sc1nnnn1-c1ccccc1 [Compound 1E, N-butyl, 1-phenyl-1H-tetrazole-5-thiocarbamate] | – | 210000 | times more potent than PC1 [1]: 10 times; stability [2]: fairly stable; half-life ([2]; calculated from the pseudofirst order rate constants): 17 days
C=CCN [Compound 2A] | None of the corresponding amines (1A, 2A, 3A, 4A, 5A and 6A) nor 1-phenyl-1H-tetrazole-5-thiol (D) inhibited HLE | – | –
C=CCNC(=O)Sc1nnnn1-c1ccccc1 [Compound 2E, N-allyl, 1-phenyl-1H-tetrazole-5-thiocarbamate] | – | 61000 | times more potent than PC1 [1]: 2 times
CC(C)N [Compound 3A, isopropyl amine] | None of the corresponding amines (1A, 2A, 3A, 4A, 5A and 6A) nor 1-phenyl-1H-tetrazole-5-thiol (D) inhibited HLE | – | –
CC(C)NC(=O)Sc1nnnn1-c1ccccc1 [Compound 3E, N-isopropyl, 1-phenyl-1H-tetrazole-5-thiocarbamate] | – | 3300 | times more active than 4E ([1]; compared with (4E), kobs/I): 10 times
Nc1ccccc1 [Compound 4A] | None of the corresponding amines (1A, 2A, 3A, 4A, 5A and 6A) nor 1-phenyl-1H-tetrazole-5-thiol (D) inhibited HLE | – | –
O=C(Nc1ccccc1)Sc1nnnn1-c1ccccc1 [Compound 4E, N-phenyl, 1-phenyl-1H-tetrazole-5-thiocarbamate] | – | 190 | –
CCCCNCC [Compound 5A, ethyl, butylamine] | None of the corresponding amines (1A, 2A, 3A, 4A, 5A and 6A) nor 1-phenyl-1H-tetrazole-5-thiol (D) inhibited HLE | – | –
CCCCN(CC)C(=O)Sc1nnnn1-c1ccccc1 [Compound 5E, N-ethyl-N-butyl, 1-phenyl-1H-tetrazole-5-thiocarbamate] | – | 180 | –
CC(C)NC(C)C [Compound 6A] | None of the corresponding amines (1A, 2A, 3A, 4A, 5A and 6A) nor 1-phenyl-1H-tetrazole-5-thiol (D) inhibited HLE | – | –
CC(C)N(C(=O)Sc1nnnn1-c1ccccc1)C(C)C [Compound 6E, N, N-diisopropyl, 1-phenyl-1H-tetrazole-5-thiocarbamate] | no inhibitory activity | – | kobs/I (class symbol) [1, 3]: N.I.
Sc1nnnn1-c1ccccc1 [D, 1-phenyl-1H-tetrazole-5-thiol] | None of the corresponding amines (1A, 2A, 3A, 4A, 5A and 6A) nor 1-phenyl-1H-tetrazole-5-thiol (D) inhibited HLE | – | –
